The nature of data set [1]: In vitro stability of conjugates in mouse serum (deconjugation and succinimide ring hydrolysis by LC-MS). It counts as in vitro ADME. The following applies: anti-HER2 mAb2 conjugates, 37° C. Here is the method:
The stability of the bond formed between maleimide containing payloads and Cys residues of the antibody is enhanced by the hydrolysis of the succinimide ring formed in this reaction. The effects of succinimide ring hydrolysis on the stability of antibody conjugates prepared with agonist compounds of the invention were studied after in vitro incubation in mouse serum. Mass changes resulting from payload deconjugation and the hydrolysis of the succinimide ring of maleimide payloads conjugated to antibodies were monitored by LC-MS. The hydrolysis of the succinimide ring has been reported to be stimulated by certain conditions such as high pH, high temperature, or high salts (J. Am. Chem. Soc. 1955, 77: 3922; Biochemistry 1976, 15: 2836; Biochem. J. 1979, 179: 191-197; J Pharm Sci. 1984, 73:1767-1771; Bioorg. Med. Chem. Lett. 17: 6286-6289, 2007). To probe the in vitro stability of conjugates, anti-HER2 antibody mAb2 conjugates were incubated at 37° C. in 50-70% mouse serum. […] The light chain, heavy chain Fab, and heavy chain Fc fragments were then analyzed by ESI-MS. The relative populations of deconjugated antibody, conjugates with attached payload with hydrolyzed succinimide ring, and conjugates with attached payload with intact succinimide ring, were calculated from the relative MS intensities of the corresponding conjugate species. […]

Another data set addresses T1, human TLR7 (Homo sapiens, UniProt Q9NYK1).
T1 construct: expressed in transfected cells; host or cells: HEK293
T1 sequence (Q9NYK1 27-1049): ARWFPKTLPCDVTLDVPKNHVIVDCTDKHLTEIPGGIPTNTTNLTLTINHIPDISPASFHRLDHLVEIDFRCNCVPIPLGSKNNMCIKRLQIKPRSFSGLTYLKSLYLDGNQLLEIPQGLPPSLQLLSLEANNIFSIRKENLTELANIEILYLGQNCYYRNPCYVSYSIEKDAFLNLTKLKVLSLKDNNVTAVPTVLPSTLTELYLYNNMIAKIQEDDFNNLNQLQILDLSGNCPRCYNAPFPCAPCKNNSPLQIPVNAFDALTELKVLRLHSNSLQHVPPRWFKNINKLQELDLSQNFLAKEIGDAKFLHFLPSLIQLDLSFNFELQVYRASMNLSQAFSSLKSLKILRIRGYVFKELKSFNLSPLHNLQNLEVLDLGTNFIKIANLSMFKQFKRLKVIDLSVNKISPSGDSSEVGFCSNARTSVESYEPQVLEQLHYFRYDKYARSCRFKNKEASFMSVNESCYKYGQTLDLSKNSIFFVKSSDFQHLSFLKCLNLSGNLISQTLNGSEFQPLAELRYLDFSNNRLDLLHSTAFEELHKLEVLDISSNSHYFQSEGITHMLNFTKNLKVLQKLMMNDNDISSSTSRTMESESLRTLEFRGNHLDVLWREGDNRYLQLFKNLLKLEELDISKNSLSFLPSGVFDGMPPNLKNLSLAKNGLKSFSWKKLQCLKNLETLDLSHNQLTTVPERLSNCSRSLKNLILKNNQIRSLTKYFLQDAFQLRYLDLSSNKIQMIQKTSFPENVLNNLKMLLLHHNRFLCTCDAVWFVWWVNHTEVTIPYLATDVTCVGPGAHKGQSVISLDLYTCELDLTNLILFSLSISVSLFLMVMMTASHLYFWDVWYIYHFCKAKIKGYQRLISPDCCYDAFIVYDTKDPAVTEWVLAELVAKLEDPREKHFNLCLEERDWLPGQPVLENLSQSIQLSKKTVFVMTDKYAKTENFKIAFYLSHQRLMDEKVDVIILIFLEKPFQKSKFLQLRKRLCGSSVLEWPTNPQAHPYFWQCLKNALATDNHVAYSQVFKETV
Kind of data set: TLR7 reporter gene assay (HEK293, NF-kB-driven luciferase). The format is cell-based. The following applies: HEK293 cells stably transfected with human TLR7 and NF-kB-driven luciferase reporter. On the procedure:
Compounds of Formula (I) were assayed to measure their activity as toll-like receptor 7 agonists.
As a control assay, normal HEK293 transfected with pNifty-Luc were used. […] Bright-Glo™ Luciferase assay buffer and substrate were supplied by Promega # E263B and # E264B (assay substrate and buffer respectively). 384 well clear-bottom plates were supplied by Greiner bio-one (#789163-G) and were custom bar-coded plates.
Cells were plated at 25,000 cells/well in 384-well plates in a final volume of 50 μl of media. Cells were allowed to adhere to the plates after overnight (18 hours) culture at 37° C. and 5% CO2. Serially diluted experimental and positive control compounds were then dispensed to each well and incubated for 7 hours at 37° C. and 5% CO2. Cells stimulated with DMSO alone also serve as negative controls. After the incubation, 30 μl of the pre-mix assay buffer and substrate buffer were added to each well according to manufacturer's instructions. The luminescence signal was read on a CLIPR machine with an integration time of 20 seconds per plate.
(In general: Reporter assays use an easily measured gene product as a stand-in for the process of interest.)

The values below come from US20200164084A1, “ANTIBODY CONJUGATES COMPRISING TOLL-LIKE RECEPTOR AGONIST AND COMBINATION THERAPIES” (NOVARTIS AG, priority 2017, published 2020).

SMILES strings stand for the structures.

For the compound `CCCCCNc1nc(N)nc2ccn(Cc3ccc(CN4CCN(CCN5C(=O)C=CC5=O)CC4)cc3OC)c12` [Compound C-5, 1-(2-(4-(4-((2-amino-4-(pentylamino)-5H-pyrrolo[3,2-d]pyrimidin-5-yl)methyl)-3-methoxybenzyl)piperazin-1-yl)ethyl)-1H-pyrrole-2,5-dione], in data set [1], the “conjugate stability (deconjugation through reverse maleimide reaction, succinimide ring hydrolysis)” value is “improved conjugate stability”. On to `CCCCCNc1nc(N)nc2ccn(Cc3ccc(CN4CCN(C(=O)CCOCCOCCNC(=O)CN5C(=O)C=CC5=O)CC4)cc3OC)c12` [Compound C-21, N-(2-(2-(3-(4-(4-((2-amino-4-(pentylamino)-5H-pyrrolo[3,2-d]pyrimidin-5-yl)methyl)-3-methoxybenzyl)piperazin-1-yl)-3-oxopropoxy)ethoxy)ethyl)-2-(2,5-dioxo-2,5-dihydro-1H-pyrrol-1-yl)acetamide], for which, in data set [1], the “conjugate stability (deconjugation through reverse maleimide reaction, succinimide ring hydrolysis)” value is listed as “improved conjugate stability”. `CCCC[C@@H](CO)Nc1nc(N)nc2ccn(Cc3cc(CN4CCN(C(=O)CCCC(=O)NCCCC[C@H](N)C(=O)O)CC4)ccc3OC)c12` [Compound C-48, (S)-2-amino-6-(5-(4-(3-((2-amino-4-(((S)-1-hydroxyhexan-2-yl)amino)-5H-pyrrolo[3,2-d]pyrimidin-5-yl)methyl)-4-methoxybenzyl)piperazin-1-yl)-5-oxopentanamido)hexanoic acid]: at human TLR7, a half-maximal response (EC50) required 1900 nM. Consider `CCCCCNc1nc(N)nc2ccn(Cc3ccc(CN4CCN(CCO)CC4)cc3OC)c12` [Compound C-68, 2-(4-(4-((2-amino-4-(pentylamino)-5H-pyrrolo[3,2-d]pyrimidin-5-yl)methyl)-3-methoxybenzyl)piperazin-1-yl)ethan-1-ol], for which, at human TLR7, the EC50 (in general, the concentration that produces a half-maximal response) was < 1 nM.
